The results in this text go back to US5089654A, “Chalcone derivatives” (Taisho Pharmaceutical Co., Ltd., priority 1989, dated 1992).

Assay [1] relates to gastric lesions induced by 0.6 N hydrochloric acid. As to the kind of experiment: Gastric Mucosal Protection Test (gastric lesions induced by 0.6 N hydrochloric acid). The class given is in vivo, Male Wistar rats. The conditions noted are these: Rattus norvegicus, oral, Wistar rats, 0.6 N HCl, read-out: Inhibition ratio (lesion index, gastric mucosal protection). The protocol:
Experiment 2 Gastric Mucosal Protection Test
(§1) The test drugs used were the compounds obtained in the foregoing Examples. Number in test drug column of Table 8 means a compound which is prepared in the correspondingly numbered Example.
Also, symbols A-E in test drug column of Table 9 are as defined in Experiment 1.
The test of protection effect against the gastric lesions induced by 0.6 N hydrochloric acid (gastric mucosal protection effect) was carried out according to a method of A. Robert et al as described in Gastroenterology,vol. 77, pages 433-443 (1979).
Male Wistar rats weighing 180-210 g (7 animals for each group), after a 24 hour-fast, were given orally the test drug (50 mg/kg and/or 100 mg/kg) suspended in 0.4% CMC. After standing at room temperature for 2 hours, 0.6 N hydrochloric acid was given orally in a dose of 1 ml per rat. After standing at room temperature for a further one hour, rats were killed to measure the length of the gastric mucosal lesions induced in the stomachs, and total of the length was designated as the lesion index per rat.
The inhibition ratio (%) was calculated by comparison of the lesion index of the group treated with the test drug with the untreated group.

For assay [2], the system named is stress ulcer. As to the kind of experiment: Stress Ulcer Inhibition Test. The class given is in vivo, Male Wistar rats. The settings on record: Rattus norvegicus, 7 h, oral, Wistar rats, read-out: Inhibition ratio (stress ulcer). The procedure: Experiment 1 Stress Ulcer Inhibition Test
as §1
Also, symbols A-E in test drug column of Table 8 mean the following compounds used as the control compounds.
The stress ulcer inhibition test was carried out according to a method of K. Takagi et al as described in Japan J. Pharmacol., vol. 18, page 9 (1968).
Male Wistar rats weighing 160 to 180 g (7 animals for each group), after a 24 hour-fast, were given orally the test drug (50 mg/kg and/or 100 mg/kg) suspended in 0.4% CMC, and placed in the stress cage made of a galvanized wire net, which was then immerged into the thermostatic water bath kept on 23° C. until the lower part of the sternum of the animals. Seven hours later, the animals were lapotomized to measure the area of the mucosa produced in the stomach, and the inhibition ration was calculated.

For assay [3], the system named is gastric acid secretion. As to the kind of experiment: 2-DG-induced Acid Secretion Test, Gastric Lumen Perfused Rats. The class given is in vivo. The conditions noted are these: intraperitoneal. The protocol:
Experiment 3 2-DG-induced Acid Secretion Test Gastric Lumen Perfused Rats
The test was carried out according to the method of K. Watanabe et al in Eur. J. Pharmacology, vol. 90, page 11-17 (1983), and the inhibition ratio of gastric acid secretion of the test drug was calculated.
Number and symbol in test drug column are as defined above.
The test drug was given intraperitoneally.

Some results are limits rather than exact numbers.

On to `CCCCCCCc1ccc(/C=C/C(=O)c2ccc(OCC=C(C)C)cc2OCC(=O)OCC)cc1` [Example 18], for which, in assay [1], the inhibition in vivo at 50 mg/kg stood at 37.6% and the inhibition in vivo at 100 mg/kg was 53.8%.

For the compound `CC(C)=CCOc1ccc(C(=O)/C=C/c2ccc(CCC(C)C)cc2)c(OCC(=O)O)c1` [Example 28], in assay [2], the inhibition in vivo at 50 mg/kg was 89%.

For the compound `CCCCC/C=C/c1ccc(/C=C/C(=O)c2ccc(OCC=C(C)C)cc2OCC(=O)O)cc1` [Example 52], the inhibition in vivo at 50 mg/kg in assay [2] turned out to be 93.4%.

As to `CCCCCCCCCCCCCCCc1ccccc1/C=C/C(=O)c1ccc(OCC=C(C)C)cc1OCC(=O)O` [Example 36], the inhibition in vivo at 50 mg/kg in assay [2] is 48.7%.

On to `CC(C)=CCOc1ccc(/C=C/C(=O)c2ccc(OCC=C(C)C)cc2OCC(=O)O)cc1` [C, 2'-carboxymethoxy-4,4'-bis(3-methyl-2-butenyloxy)chalcone, reference compound], for which the inhibition in vivo at 50 mg/kg in assay [1] and in assay [2] was less than 10% in each case. Also, the “Inhibition ratio of gastric acid secretion” value in assay [3] (200 mg/kg) worked out at 35.2%.

As for `CCCCCc1ccc(/C=C/C(=O)c2ccc(OCC=C(C)C)cc2OCC(=O)O)cc1` [Example 27], the inhibition in vivo at 50 mg/kg in assay [2] came out at 86.3%.

With `CCCCCC/C=C/c1ccc(/C=C/C(=O)c2ccc(OCC=C(C)C)cc2OCC(=O)O)cc1` [Example 49, 2'-carboxymethoxy-4'-(3-methyl-2-butenyloxy)-4-(1-(E)-octenyl)chalcone], the inhibition in vivo at 50 mg/kg in assay [2] is 76.6%.

As for `CC(C)=CCOc1ccc(C(=O)/C=C/c2ccc(OCC(=O)O)cc2)c(OCC(=O)O)c1` [B, 2',4-bis(carboxymethoxy)-4'-(3-methyl-2-butenyloxy)chalcone, reference compound], the inhibition in vivo at 50 mg/kg in assay [1] and in assay [2] was less than 10% each time.

As for `CCCCCCc1ccc(/C=C/C(=O)c2ccc(OCC=C(C)C)cc2OC(C)C(=O)O)cc1` (centres unmarked) [Example 46], in assay [2], the inhibition in vivo at 50 mg/kg was 63%.

As for `CCCCCCCc1ccc(/C=C/C(=O)c2ccc(OCC=C(C)C)cc2OCC(=O)O)cc1` [Example 30, 2'-carboxymethoxy-4-n-heptyl-4'-(3-methyl-2-butenyloxy)chalcone], in assay [1], the inhibition in vivo at 50 mg/kg stood at 83.8% and the inhibition in vivo at 100 mg/kg amounted to 94.4%. Further, the inhibition in vivo at 50 mg/kg in assay [2] came to 91.8%.

On to `CC(C)=CCOc1ccc(C(=O)/C=C/c2ccc(C(=O)O)cc2)c(OCC(=O)O)c1` [A, 4-carboxy-2'-carboxymethoxy-4'-(3-methyl-2-butenyloxy)chalcone, reference compound], for which the inhibition in vivo at 50 mg/kg in assay [1] and in assay [2] was less than 10% throughout.

`CCCc1ccc(/C=C/C(=O)c2ccc(OCC=C(C)C)cc2OCC(=O)O)cc1` [E, 2'-carboxymethoxy-4'-(3-methyl-2-butenyloxy)-4-n-propylchalcone, reference compound]: the inhibition in vivo at 50 mg/kg in assay [1] stood at 24.8%. For the same compound, in assay [2], the inhibition in vivo at 50 mg/kg was 33.7% and the inhibition in vivo at 100 mg/kg stood at 57.1%.

For the compound `C=CCCc1ccc(/C=C/C(=O)c2ccc(OCC=C(C)C)cc2OCC(=O)O)cc1` [Example 54], the inhibition in vivo at 50 mg/kg in assay [2] turned out to be 56.9%.

For the compound `CCC(C)c1ccc(/C=C/C(=O)c2ccc(OCC=C(C)C)cc2OCC(=O)O)cc1` (centres unmarked) [Example 24], the inhibition in vivo at 50 mg/kg in assay [2] came to 70.5%.

As for `CC(C)=CCOc1ccc(C(=O)/C=C/c2ccc(C(C)(C)C)cc2)c(OC(C)C(=O)O)c1` (centres unmarked) [Example 45, 4-(t-butyl)-2'-(1-carboxethoxy)-4'-(3-methyl-2-butenyloxy)chalcone], the inhibition in vivo at 50 mg/kg in assay [2] is 50.4%.

With `CC(C)=CCOc1ccc(C(=O)/C=C/c2ccc(C(C)(C)C)cc2)c(OCC(=O)O)c1` [Example 44, 4-t-butyl-2'-carboxymethoxy-4'-(3-methyl-2-butenyloxy)chalcone], the values for the inhibition in vivo at 50 mg/kg in assay [1] and in assay [2] were 61.9% and 76%, respectively. For the same compound, the values for the inhibition in vivo at 100 mg/kg in assay [1] and in assay [2] were 82.8% and 84.2%, respectively. Besides, the “Inhibition ratio of gastric acid secretion” value came out at 54.3% in assay [3] (30 mg/kg) and 66.8% in assay [3] (100 mg/kg).

Regarding `CC(C)=CCOc1ccc(C(=O)/C=C/c2ccc(C)cc2)c(OCC(=O)O)c1` [D, 2'-carboxymethoxy-4-methyl-4'-(3-methyl-2-butenyloxy)chalcone, reference compound], the inhibition in vivo at 50 mg/kg in assay [1] is less than 10%. Further, in assay [2], the inhibition in vivo at 50 mg/kg was less than 10% and the inhibition in vivo at 100 mg/kg turned out to be 26.2%.

Regarding `CCCCCCCCc1ccc(/C=C/C(=O)c2ccc(OCC=C(C)C)cc2OCC(=O)O)cc1` [Example 31], the inhibition in vivo at 50 mg/kg in assay [2] came to 77.2%.

For the compound `CCCCCCc1ccc(/C=C/C(=O)c2ccc(OCC=C(C)C)cc2OCC(=O)O)cc1` [Example 29, 2'-carboxymethoxy-4-n-hexyl-4'-(3-methyl-2-butenyloxy)chalcone], the results for the inhibition in vivo at 50 mg/kg in assay [1] and in assay [2] were 81.2% and 67.3%, respectively. Moreover, in assay [1], the inhibition in vivo at 100 mg/kg turned out to be 83.7%.

For the compound `CCCCc1ccc(/C=C/C(=O)c2ccc(OCC=C(C)C)cc2OCC(=O)O)cc1` [Example 25], in assay [2], the inhibition in vivo at 50 mg/kg was found to be 61% and the inhibition in vivo at 100 mg/kg was 63%.

As to `CC(C)=CCOc1ccc(C(=O)/C=C/c2ccc(C(C)(C)C)cc2)c(OCCCC(=O)O)c1` [Example 48], the inhibition in vivo at 100 mg/kg in assay [2] came to 72%.

With `CCCC/C=C/c1ccc(/C=C/C(=O)c2ccc(OCC=C(C)C)cc2OCC(=O)O)cc1` [Example 51], the inhibition in vivo at 50 mg/kg in assay [2] was determined as 93.3%.
